This passage reports Max % inhibition and IC50 results from patent US20230089867A1, “CYCLIC PENTAMER COMPOUNDS AS PROPROTEIN CONVERTASE SUBTILISIN/KEXIN TYPE 9 (PCSK9) INHIBITORS FOR THE TREATMENT OF METABOLIC DISORDER” (Novartis AG, priority 2018, published 2023).

In the test the target is human PCSK9 (Homo sapiens, UniProt Q8NBP7). Nature of the test: PCSK9 ligand binding TR-FRET assay (interference with binding of human PCSK9 to human LDLR). As to conditions: for Max % inhibition: PCSK9 FRET assay, efficacy (Amax), 100% = 1 uM unlabeled human PCSK9, 0% = DMSO; for IC50: TR-FRET, human PCSK9 Alexa Fluor 647 / human LDLR extracellular domain-Europium Kryptate, read-out: PCSK9 FRET Assay IC50. In outline: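 Threefold compound dilutions were pre-incubated 30 min with PCSK9, after which 4 nM Europium Kryptate-tagged human LDLR ectodomain was added for a further 2 h.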
human PCSK9, sequence (Q8NBP7 153-692): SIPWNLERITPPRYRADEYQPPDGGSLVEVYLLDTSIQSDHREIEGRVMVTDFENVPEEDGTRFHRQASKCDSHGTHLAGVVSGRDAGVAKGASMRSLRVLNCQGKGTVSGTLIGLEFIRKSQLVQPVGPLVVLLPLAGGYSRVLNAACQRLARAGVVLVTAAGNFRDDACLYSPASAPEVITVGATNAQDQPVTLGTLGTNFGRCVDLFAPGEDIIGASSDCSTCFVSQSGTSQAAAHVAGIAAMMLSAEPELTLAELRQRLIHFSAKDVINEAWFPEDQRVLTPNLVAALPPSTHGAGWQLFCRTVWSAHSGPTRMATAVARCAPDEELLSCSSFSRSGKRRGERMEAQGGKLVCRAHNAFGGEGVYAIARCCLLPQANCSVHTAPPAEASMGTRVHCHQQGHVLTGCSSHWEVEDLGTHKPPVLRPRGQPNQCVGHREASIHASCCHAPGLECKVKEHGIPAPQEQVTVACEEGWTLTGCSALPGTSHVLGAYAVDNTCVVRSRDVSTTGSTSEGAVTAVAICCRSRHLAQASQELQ
human PCSK9, sequence (Q8NBP7 31-152 partner limits assumed): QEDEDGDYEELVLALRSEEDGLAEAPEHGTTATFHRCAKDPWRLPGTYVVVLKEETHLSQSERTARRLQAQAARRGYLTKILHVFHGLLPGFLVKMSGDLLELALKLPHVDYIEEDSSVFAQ

Take `COC[C@@H]1NC(=O)[C@H](C)N(Cc2c(Oc3ccc(-c4cnc(CN(C)C)n4C)cc3)cccc2OC(F)F)C(=O)C[C@@H](C)C(=O)N(C)[C@@H](C)CNC(=O)C[C@H](Cc2ccc(Cl)cc2)N(C)C1=O` [Compound 62, (5S,8S,13S,16R)-8-(4-chlorobenzyl)-1-(2-(difluoromethoxy)-6-(4-(2-((dimethylamino)methyl)-1-methyl-1H-imidazol-5-yl)phenoxy)benzyl)-5-(methoxymethyl)-2,7,13,14,16-pentamethyl-1,4,7,11,14-pentaazacyclooctadecane-3,6,10,15,18-pentaone]: the Max % inhibition came out at 88.46% and the IC50 amounted to 16.8 nM.

Turning to `COC[C@@H]1NC(=O)[C@H](C)N(Cc2ccc(Cl)cc2Oc2ccc(-c3cnc(CN4CCCC4)n3C)cc2)C(=O)C[C@@H](Cc2ccn(C(F)F)n2)C(=O)N(C)[C@@H](C)CNC(=O)C[C@H](Cc2ccc(Cl)cc2)N(C)C1=O` [Compound 63, (2S,5S,8S,13S)-1-(4-chloro-2-(4-(1-methyl-2-(pyrrolidin-1-ylmethyl)-1H-imidazol-5-yl)phenoxy)benzyl)-8-(4-chlorobenzyl)-16-((1-(difluoromethyl)-1H-pyrazol-3-yl)methyl)-5-(methoxymethyl)-2,7,13,14-tetramethyl-1,4,7,11,14-pentaazacyclooctadecane-3,6,10,15,18-pentaone], the Max % inhibition is listed as 103.93% and the concentration for half-maximal inhibition (IC50) is 87.3 nM.

In the case of `COC[C@@H]1NC(=O)[C@H](C)N(Cc2ccc(Cl)cc2Oc2ccc(-c3cnc(CN(C)C)n3C)cc2)C(=O)C[C@@H](C)C(=O)N(C)[C@H]2CCCC[C@@H]2NC(=O)C[C@H](Cc2ccc(Cl)cc2)N(C)C1=O` [Compound 64, (4S,7S,10S,14R,16aS,20aS)-11-(4-chloro-2-(4-(2-((dimethylamino)methyl)-1-methyl-1H-imidazol-5-yl)phenoxy)benzyl)-4-(4-chlorobenzyl)-7-(methoxymethyl)-5,10,14,16-tetramethylhexadecahydrobenzo[l][1,4,7,11,14]pentaazacyclooctadecine-2,6,9,12,15(3H)-pentaone], the Max % inhibition stood at 79.08% and the IC50 worked out at 9 nM.

Regarding `COC[C@@H]1NC(=O)[C@H](C)N(Cc2ccc(Cl)cc2Oc2ccc(-c3cnc(CN(C)C)n3C)cc2)C(=O)C[C@@H](Cc2ccccc2)C(=O)N(C)CC(C)(C)NC(=O)C[C@H](Cc2ccc(Cl)cc2)N(C)C1=O` [Compound 65, (2S,5S,8S,16R)-16-benzyl-1-(4-chloro-2-(4-(2-((dimethylamino)methyl)-1-methyl-1H-imidazol-5-yl)phenoxy)benzyl)-8-(4-chlorobenzyl)-5-(methoxymethyl)-2,7,12,12,14-pentamethyl-1,4,7,11,14-pentaazacyclooctadecane-3,6,10,15,18-pentaone], the Max % inhibition turned out to be 92.63% and the IC50 was 189 nM.

As to `C[C@H]1CNC(=O)C[C@H](Cc2ccc(Cl)cc2)N(C)C(=O)[C@H](CO)NC(=O)[C@H](C)N(Cc2ccccc2Oc2ccc(-c3cnc(CN(C)C)n3C)cc2)C(=O)CCC(=O)N1C` [Compound 66, (2S,5S,8S,13S)-8-(4-chlorobenzyl)-1-(2-(4-(2-((dimethylamino)methyl)-1-methyl-1H-imidazol-5-yl)phenoxy)benzyl)-5-(hydroxymethyl)-2,7,13,14-tetramethyl-1,4,7,11,14-pentaazacyclooctadecane-3,6,10,15,18-pentaone], the Max % inhibition is reported as 91.88% and the IC50 was 77.2 nM.

Turning to `COC[C@@H]1NC(=O)[C@H](C)N(Cc2ccc(Cl)cc2Oc2ccc(-c3cnc(CN4CCCC4)n3C)cc2)C(=O)C[C@@H](Cc2cccc(F)c2F)C(=O)N(C)[C@@H](C)CNC(=O)C[C@H](Cc2ccc(Cl)cc2)N(C)C1=O` [Compound 67, (2S,5S,8S,13S,16R)-1-(4-chloro-2-(4-(1-methyl-2-(pyrrolidin-1-ylmethyl)-1H-imidazol-5-yl)phenoxy)benzyl)-8-(4-chlorobenzyl)-16-(2,3-difluorobenzyl)-5-(methoxymethyl)-2,7,13,14-tetramethyl-1,4,7,11,14-pentaazacyclooctadecane-3,6,10,15,18-pentaone], the Max % inhibition is on record as 96.63% and the IC50 amounted to 0.6 nM.

For the molecule `CCOc1ncc(-c2ccc(Oc3cc(Cl)ccc3CN3C(=O)C[C@@H](Cc4ccccc4)C(=O)N(C)[C@@H](C)CNC(=O)C[C@H](Cc4ccc(Cl)cc4)N(C)C(=O)[C@H](COC)NC(=O)[C@@H]3C)cc2)n1C` [Compound 68, (2S,5S,8S,13S,16R)-16-benzyl-1-(4-chloro-2-(4-(2-ethoxy-1-methyl-1H-imidazol-5-yl)phenoxy)benzyl)-8-(4-chlorobenzyl)-5-(methoxymethyl)-2,7,13,14-tetramethyl-1,4,7,11,14-pentaazacyclooctadecane-3,6,10,15,18-pentaone], the Max % inhibition was 77.84% and the IC50 came out at 30.5 nM.

Consider `COC[C@@H]1NC(=O)[C@H](C)N(Cc2ccc(Cl)cc2Oc2ccc(-c3cnc(OC)nc3)cc2)C(=O)C[C@@H](Cc2ccccc2)C(=O)N(C)[C@@H](C)CNC(=O)C[C@H](Cc2ccc(Cl)cc2)N(C)C1=O` [Compound 69, (2S,5S,8S,13S,16R)-16-benzyl-1-(4-chloro-2-(4-(2-methoxypyrimidin-5-yl)phenoxy)benzyl)-8-(4-chlorobenzyl)-5-(methoxymethyl)-2,7,13,14-tetramethyl-1,4,7,11,14-pentaazacyclooctadecane-3,6,10,15,18-pentaone], for which the Max % inhibition came to 64.09% and the IC50 was 43 nM.

As to `CC[C@H]1C(=O)N[C@@H](COC)C(=O)N(C)[C@@H](Cc2ccc(Cl)cc2)CC(=O)NC[C@H](C)N(C)C(=O)[C@H](Cc2ccccc2)CC(=O)N1Cc1ccc(Cl)cc1Oc1ccc(-c2cnc(CN(C)C)n2C)cc1` [Compound 70, (2S,5S,8S,13S,16R)-16-benzyl-1-(4-chloro-2-(4-(2-((dimethylamino)methyl)-1-methyl-1H-imidazol-5-yl)phenoxy)benzyl)-8-(4-chlorobenzyl)-2-ethyl-5-(methoxymethyl)-7,13,14-trimethyl-1,4,7,11,14-pentaazacyclooctadecane-3,6,10,15,18-pentaone], the Max % inhibition was 101.10% and the IC50 was 0.9 nM.

Regarding `COC[C@@H]1NC(=O)[C@H](C)N(Cc2ccc(Cl)cc2Oc2ccc(-c3cnc(CN(C)C)n3C)cc2)C(=O)C[C@@H](Cc2ccccc2)C(=O)N(C)[C@@H](C(=O)OC)CNC(=O)C[C@H](Cc2ccc(Cl)cc2)N(C)C1=O` [Compound 71, (2S,5S,8S,13R,16R)-methyl 16-benzyl-1-(4-chloro-2-(4-(2-((dimethylamino)methyl)-1-methyl-1H-imidazol-5-yl)phenoxy)benzyl)-8-(4-chlorobenzyl)-5-(methoxymethyl)-2,7,14-trimethyl-3,6,10,15,18-pentaoxo-1,4,7,11,14-pentaazacyclooctadecane-13-carboxylate], the Max % inhibition is given as 102.12% and the IC50 was determined as 12.9 nM.
